Laboratory results: PubChem BioAssay (NCI)
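All cell lines were grown in 96-well plates and treated with compound for 48 hours. TGI: total growth inhibition.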

What was measured:
Assay in all cases: DTP human tumour cell line panel, 48 h
[1] = tested on: 786-0 renal
[2] = tested on: A498 renal
[3] = tested on: A549 NSCLC
[4] = tested on: ACHN renal
[5] = tested on: BT-549 breast
[6] = tested on: CAKI-1 renal
[7] = tested on: CCRF-CEM leukemia
[8] = tested on: COLO 205 colon
[9] = tested on: DU-145 prostate
[10] = tested on: EKVX NSCLC
[11] = tested on: HCC-2998 colon
[12] = tested on: HCT-116 colon
[13] = tested on: HCT-15 colon
[14] = tested on: HL-60(TB) leukemia
[15] = tested on: HOP-62 NSCLC
[16] = tested on: HOP-92 NSCLC
[17] = tested on: HS 578T breast
[18] = tested on: HT29 colon
[19] = tested on: IGROV1 ovarian
[20] = tested on: K-562 leukemia
[21] = tested on: KM12 colon
[22] = tested on: LOX IMVI melanoma
[23] = tested on: M14 melanoma
[24] = tested on: MALME-3M melanoma
[25] = tested on: MCF7 breast
[26] = tested on: MDA-MB-231 breast
[27] = tested on: MDA-MB-435
[28] = tested on: MDA-N
[29] = tested on: MOLT-4 leukemia
[30] = tested on: NCI-H226 lung
[31] = tested on: NCI-H23 lung
[32] = tested on: NCI-H460 lung
[33] = tested on: NCI-H522 lung
[34] = tested on: NCI/ADR-RES ovarian
[35] = tested on: OVCAR-3 ovarian
[36] = tested on: OVCAR-4 ovarian
[37] = tested on: OVCAR-5 ovarian
[38] = tested on: OVCAR-8 ovarian
[39] = tested on: PC-3 prostate
[40] = tested on: RPMI-8226 leukemia
[41] = tested on: RXF 393 renal
[42] = tested on: SF-268 CNS
[43] = tested on: SF-295 CNS
[44] = tested on: SK-MEL-2 melanoma
[45] = tested on: SK-MEL-28 melanoma
[46] = tested on: SK-MEL-5 melanoma
[47] = tested on: SK-OV-3 ovarian
[48] = tested on: SN12C renal
[49] = tested on: SNB-19 CNS
[50] = tested on: SW-620 colon
[51] = tested on: T-47D breast
[52] = tested on: TK-10 renal
[53] = tested on: U251 CNS
[54] = tested on: UACC-257 melanoma
[55] = tested on: UACC-62 melanoma
[56] = tested on: UO-31 renal
[57] = tested on: SF-539 CNS
[58] = tested on: SNB-75 CNS
[59] = tested on: SR leukemia

For C[N+](C)(C)c1cc2c(nn1)Nc1ccccc1S2, the TGI [1] was > 100 µM, the TGI [2] was 87.8 µM and the TGI [3] was > 100 µM. For the same compound, the TGI [4] was 69.6 µM, the TGI [5] was > 100 µM and the TGI [6] was > 100 µM. For the same compound, the TGI [7] was 41 µM, the TGI [8] was 38 µM and the TGI [9] was > 100 µM. It also gave a TGI [10] of 29.9 µM, a TGI [11] of 71.5 µM and a TGI [12] of 66 µM. The TGI [13] was > 100 µM, the TGI [14] was 74 µM and the TGI [15] was 69.8 µM. The TGI [16] was 48.5 µM, the TGI [17] was > 100 µM and the TGI [18] was 42.5 µM. The TGI [19] was 81.2 µM, the TGI [20] was 68.9 µM and the TGI [21] was > 100 µM. It also gave a TGI [22] of 43.8 µM, a TGI [23] of 40 µM and a TGI [24] of 70 µM. For the same compound, the TGI [25] was > 100 µM, the TGI [26] was 67 µM and the TGI [27] was 51.9 µM. It also gave a TGI [28] of 50.3 µM, a TGI [29] of 44.2 µM and a TGI [30] of 35.9 µM. For the same compound, the TGI [31] was > 100 µM, the TGI [32] was 48.8 µM and the TGI [33] was 52.8 µM. The TGI [34] was 56.9 µM, the TGI [35] was 54.8 µM and the TGI [36] was 70.1 µM. It also gave a TGI [37] of 58.2 µM, a TGI [38] of 77.9 µM and a TGI [39] of 47.9 µM. For the same compound, the TGI [40] was 36 µM, the TGI [41] was > 100 µM and the TGI [42] was > 100 µM. It also gave a TGI [43] of 49.7 µM, a TGI [44] of 37.1 µM and a TGI [45] of 53.1 µM. For the same compound, the TGI [46] was 29.9 µM, the TGI [47] was 72 µM and the TGI [48] was > 100 µM. For the same compound, the TGI [49] was > 100 µM, the TGI [50] was > 100 µM and the TGI [51] was 28.2 µM. For the same compound, the TGI [52] was > 100 µM, the TGI [53] was 63.9 µM and the TGI [54] was 62.6 µM. The TGI [55] was 36.9 µM and the TGI [56] was 41.9 µM.
For O=c1[nH]c(=O)n(C2CC(O)C(CO)O2)c2nc3ccc4cc5ccccc5cc4c3nc12 (stereo not drawn), the TGI [1] was > 100 µM, the TGI [2] was > 100 µM and the TGI [3] was > 100 µM. The TGI [4] was > 100 µM, the TGI [5] was > 100 µM and the TGI [6] was > 100 µM. For the same compound, the TGI [7] was > 100 µM, the TGI [8] was > 100 µM and the TGI [9] was > 100 µM. The TGI [10] was > 100 µM, the TGI [11] was > 100 µM and the TGI [12] was > 100 µM. For the same compound, the TGI [13] was > 100 µM, the TGI [15] was > 100 µM and the TGI [16] was > 100 µM. The TGI [17] was > 100 µM, the TGI [18] was > 100 µM and the TGI [19] was > 100 µM. The TGI [20] was > 100 µM, the TGI [21] was > 100 µM and the TGI [22] was > 100 µM. For the same compound, the TGI [23] was > 100 µM, the TGI [24] was > 100 µM and the TGI [25] was > 100 µM. The TGI [26] was > 100 µM, the TGI [27] was > 100 µM and the TGI [28] was > 100 µM. For the same compound, the TGI [29] was > 100 µM, the TGI [30] was > 100 µM and the TGI [31] was > 100 µM. The TGI [33] was > 100 µM, the TGI [34] was > 100 µM and the TGI [35] was > 100 µM. The TGI [36] was > 100 µM, the TGI [37] was > 100 µM and the TGI [38] was > 100 µM. For the same compound, the TGI [39] was > 100 µM, the TGI [40] was > 100 µM and the TGI [41] was > 100 µM. For the same compound, the TGI [42] was > 100 µM, the TGI [43] was > 100 µM and the TGI [57] was > 100 µM. For the same compound, the TGI [44] was > 100 µM, the TGI [45] was > 100 µM and the TGI [46] was > 100 µM. For the same compound, the TGI [47] was > 100 µM, the TGI [48] was > 100 µM and the TGI [49] was > 100 µM. For the same compound, the TGI [58] was > 100 µM, the TGI [59] was > 100 µM and the TGI [50] was > 100 µM. For the same compound, the TGI [51] was > 100 µM, the TGI [52] was > 100 µM and the TGI [53] was > 100 µM. For the same compound, the TGI [54] was > 100 µM, the TGI [55] was > 100 µM and the TGI [56] was > 100 µM.
